# Data taken from paper PMC11721817 (Toxicology Reports, 2024).
# Tests used:
# [1] = test system: CT-26 (murine colorectal cancer cells); assay: MTT cytotoxicity assay, CT-26; format: cell-based; settings: Mus musculus, CT26, 24 h
# [2] = test system: red blood cells (RBCs); assay: Hemolysis assay; format: cell-based; settings: rat blood, 10 μM, 25 μM, 50 μM, and 100 μM, compared to positive control
# [3] = test system: Wistar rats; assay: Superoxide dismutase activity in organ homogenates; format: in vivo, rat; settings: 1000 mg/kg
# [4] = test system: HCT-116 (human colorectal cancer cells); assay: MTT cytotoxicity assay, HCT-116; format: cell-based
# [5] = test system: CT-26 cells; assay: DNA fragmentation, Hoechst staining, CT-26; format: cell-based, murine; settings: CT-26, 50 µM, 24 h
# [6] = test system: CT-26 cells; assay: Cell migration; format: cell-based, murine; settings: 24 h, control = 100 %
# [7] = test system: Wistar rats; assay: Histopathological examination of liver, kidney and spleen; format: in vivo, rat; settings: H&E
# [8] = test system: Wistar rats; assay: Lipid peroxidation assay; format: in vivo, rat; settings: 1000 mg/kg, compared to control
# [9] = test system: HCT-116 cells; assay: Cell migration; format: cell-based, human; settings: 24 h, control = 100 %
# [10] = test system: HCT-116 cells; assay: DNA fragmentation, Hoechst staining, HCT-116; format: cell-based, human; settings: HCT-116, 50 µM, 24 h
# [11] = test system: Wistar rats; assay: Acute oral toxicity study; settings: for change in body weight / food consumed by animals (weight) / change in organ weight, Kidney / change in organ weight, Liver / change in organ weight, Spleen: mean ± S.E.M, n = 5
# [12] = test system: Wistar rats; assay: Serum biochemistry after acute oral administration; settings: n = 3; for Globulin: normal range 1.5–2.5, mean ± S.E.M; for A/G ratio: normal range 1.58–2.67, mean ± S.E.M; for Albumin: normal range 3.4–4.8, mean ± S.E.M; for Total protein: normal range 5.2–7.1, mean ± S.E.M; for SGPT (ALT): normal range 18–45, mean ± S.E.M; for ALP: normal range 62–230, mean ± S.E.M; for SGOT (AST): normal range 74–183, mean ± S.E.M
smiles,measurement,setting,value
"CC(C)(C)Nc1c(-c2ccc(-c3ccccc3)cc2)nc2ccccn12 [IG-01–007, 2-([1,1’-biphenyl]-4-yl)-N-(tert-butyl)imidazo[1,2-a]pyridine-3-amine]",IC50,[1],61.2 ± 21.2 µM
same,hemolytic activity,[2],did not show any hemolytic activity
same,"SOD level, spleen",[3]; compared with IG-01–007 and IG-01–008 at 300 mg/kg,significant reduction of SOD level
same,"SOD level, spleen",[3]; compared with control and 1 % DMSO,significant decrease seen in SOD level
same,cell viability,"[4]; HCT-116, 10 μM and 25 μM",no significant reduction in cell viability
same,IC50,"[4]; Homo sapiens, HCT-116, 24 h",30.1 ± 1.58 µM
same,DNA fragmentation,[5],DNA fragmentation
same,migration percentages,"[6]; CT-26, 25 μM",45.61%
same,migration percentages,"[6]; CT-26, 50 μM",30.62%
same,"Liver sections, histopathology",[7]; 300 mg/kg,healthy with normal hepatocytes while some sections were found to have non-uniform cell structure
same,"Spleen sections, histopathology",[7]; 300 mg/kg,diffuse white pulp and distorted lymphoid architecture
same,"Liver sections, histopathology",[7]; 1000 mg/kg,healthy with mild activation of kupffer cells indicated by circle and moderate steatosis
same,"Spleen sections, histopathology",[7]; 1000 mg/kg,diffuse white pulp and distorted lymphoid architecture
same,"MDA levels, liver",[8],significantly higher
same,% migration of cell,"[9]; HCT-116, 25 μM",41.75%
same,% migration of cell,"[9]; HCT-116, 50 μM",35.07%
same,DNA fragmentation,[10],DNA fragmentation
same,change in body weight,"[11]; 0 day, 300 mg/kg",233 ± 2 gm
same,food consumed by animals (weight),"[11]; 0 day, 300 mg/kg",93.8 ± 1.1575 gm
same,change in body weight,"[11]; 0 day, 1000 mg/kg",244 ± 15.6844 gm
same,food consumed by animals (weight),"[11]; 0 day, 1000 mg/kg",94.8 ± 0.80 gm
same,"change in organ weight, Kidney",[11]; 300 mg/kg,1.6568 ± 0.110 gm
same,"change in organ weight, Liver",[11]; 300 mg/kg,6.58 ± 0.535 gm
same,"change in organ weight, Spleen",[11]; 300 mg/kg,0.654 ± 0.075 gm
same,"change in organ weight, Kidney",[11]; 1000 mg/kg,1.854 ± 0.1179 gm
same,"change in organ weight, Liver",[11]; 1000 mg/kg,6.204 ± 0.2716 gm
same,"change in organ weight, Spleen",[11]; 1000 mg/kg,0.716 ± 0.0508 gm
same,body weight course,"[11]; 7th and 14th day, 1000 mg/kg",gradual decrease in body weight
same,change in body weight,"[11]; 7th day, 300 mg/kg",248 ± 3.391 gm
same,food consumed by animals (weight),"[11]; 7th day, 300 mg/kg",90.4 ± 1.288 gm
same,change in body weight,"[11]; 7th day, 1000 mg/kg",238 ± 16.17 gm
same,food consumed by animals (weight),"[11]; 7th day, 1000 mg/kg",88.6 ± 1.363 gm
same,change in body weight,"[11]; 14th day, 300 mg/kg",253 ± 8 gm
same,food consumed by animals (weight),"[11]; 14th day, 300 mg/kg",89.2 ± 2.009 gm
same,food intake,"[11]; 14th day, 1000 mg/kg, compared to control",significant decrease in food intake
same,change in body weight,"[11]; 14th day, 1000 mg/kg",231 ± 15.033 gm
same,food consumed by animals (weight),"[11]; 14th day, 1000 mg/kg",82.4 ± 1.939 gm
same,toxicity signs,"[11]; oral, 1000 mg/kg",toxicity signs were seen
same,"tremors, change in eye and skin color","[11]; oral, 1000 mg/kg","tremors, change in eye and skin color was observed"
same,Mortality,"[11]; oral, 2000 mg/kg",Mortality was observed
same,Globulin,[12]; 300 mg/kg,3.80 ± 0.404 g/dL
same,A/G ratio,[12]; 300 mg/kg,0.69 ± 0.0608
same,Albumin,[12]; 300 mg/kg,3.33 ± 0.437 g/dL
same,Total protein,[12]; 300 mg/kg,7.03 ± 0.491 g/dL
same,SGPT (ALT),[12]; 300 mg/kg,47.66 ± 2.728 U/L
same,ALP,[12]; 300 mg/kg,307.33 ± 7.218 U/L
same,SGOT (AST),[12]; 300 mg/kg,193 ± 12.74 U/L
same,Globulin,[12]; 1000 mg/kg,4.006 ± 0.1034 g/dL
same,A/G ratio,[12]; 1000 mg/kg,0.6966 ± 0.0317
same,Albumin,[12]; 1000 mg/kg,3.683 ± 0.261 g/dL
same,Total protein,[12]; 1000 mg/kg,7.40 ± 0.324 g/dL
same,SGPT (ALT),[12]; 1000 mg/kg,75.33 ± 4.05 U/L
same,Triglycerides,"[12]; 1000 mg/kg, normal range 20–114, mean ± S.E.M",115 ± 4.055 mg%
same,ALP,[12]; 1000 mg/kg,343.0 ± 10.785 U/L
same,SGOT (AST),[12]; 1000 mg/kg,242 ± 3.785 U/L
